Columns and labels:
Multi-dose PK study = format: in vivo; conditions: Balb/c mice, 30 mg/kg p.o. every 12 h; total plasma concentration factored by fu
Protocol: In the multi-dose PK study, three male Balb/c mice (6–8 weeks old, 20–30 g) were dosed via oral (p.o.) administration of four doses of compound 2 (30 mg/kg) as a 10 mL/kg volume of 3 mg/mL solution in DMSO/PEG-400/Water (v/v/v, 10:30:60) every 12 h. At 2, 6, 12, 14, 24, 26, 36, 38, and 48 h after the first dose, 0.025 mL of blood was collected from the dorsal metatarsal vein at each time point. Each blood sample was transferred into a plastic microcentrifuge tube containing EDTA-K2 anticoagulant and mixed well with the anticoagulant, then placed on ice prior to centrifugation at 4000× g for 5 min at 4 °C to obtain plasma. The samples were stored in a freezer at −75 ± 15 °C prior to analysis. […] The final compound concentration was calculated by multiplying the detected concentration by a dilution factor of four.
Concentrations of the test compound in the plasma samples were determined using a Prominence LC-MS/MS system with a DGU-20A5R(C) degasser, LC-30AD pump, CBM-20A system controller, SIL-20AC HT autosampler; Rack changer II, HALO 90A ES-CN (2.7 μm, 2.1 × 50 mm) column, and AB Sciex Triple Quan 5500 LC/MS/MS instrument. […] After centrifugation at 4 °C and 4000 rpm for 15 min, the supernatant was diluted with ultrapure water at a ratio of 1:2 (v/v, 1:2), then 20 µL of diluted supernatant was injected into the LC/MS/MS system for quantitative analysis. […]

[1] = Liver microsomal stability, human; format: in vitro ADME; conditions: pH 7.4, human liver microsomes, five time points over 1 h, read-out: HLM CLint
CSNK2A2 = target: T1, CSNK2A2 (Homo sapiens, UniProt P19784); experiment: NanoBRET assay CSNK2A2; format: cell-based; conditions: HEK293 cells, singlicate, read-out: CSNK2A2 pIC50 (converted)
T1 construct: expressed in transfected cells; host or cells: HEK293
Protocol: Assays were run using a modified version of the previously published protocols. […] A transfection complex of DNA (10 μg/mL) was generated consisting of 9 μg/mL carrier DNA (Promega, Madison, WI, USA) and 1 μg/mL CSNK2A-NLuc fusion DNA in Opti-MEM without serum (Gibco). FuGENE HD (Promega) was added at 30 μL/mL to form a lipid–DNA complex. The solution was then mixed and incubated at room temperature for 20 min. The transfection complex was mixed with a 20× volume of HEK293 cells in DMEM/FBS to arrive at a final concentration of 200,000 cells/mL, and 100 μL/well was added to a 96-well plate that was incubated overnight at 37 °C and 5% CO2. The following day, the medium was removed via aspiration and replaced with 85 μL of Opti-MEM without phenol red. A total of 5 μL per well of 20× NanoBRET Tracer K10 (Promega) at 10 μM for CSNK2A1 or 5 μM for CSNK2A2 in Tracer Dilution Buffer (Promega N291B) was added to all wells, except the “no tracer” control wells. Test compounds (10 mM in DMSO) were diluted 100× in Opti-MEM media to prepare stock solutions and evaluated at 11 concentrations. A total of 10 μL per well of the 10-fold test compound stock solutions (final assay concentration of 0.1% DMSO) were added. […] The plates were read within 30 min on a GloMax Discover luminometer (Promega) equipped with a 450 nm BP filter (donor) and 600 nm LP filter (acceptor) using 0.3 s of integration time. […]

T1 sequence (P19784 whole entry): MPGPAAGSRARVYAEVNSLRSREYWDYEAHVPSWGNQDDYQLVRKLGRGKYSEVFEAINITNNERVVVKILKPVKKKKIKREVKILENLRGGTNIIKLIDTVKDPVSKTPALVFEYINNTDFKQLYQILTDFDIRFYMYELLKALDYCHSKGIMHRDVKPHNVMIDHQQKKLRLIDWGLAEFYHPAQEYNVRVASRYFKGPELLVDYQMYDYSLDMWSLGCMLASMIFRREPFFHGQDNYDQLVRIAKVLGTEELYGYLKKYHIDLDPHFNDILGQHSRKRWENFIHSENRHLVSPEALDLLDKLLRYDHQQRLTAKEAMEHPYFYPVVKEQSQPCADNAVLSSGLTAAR

For CCC(=O)Nc1cc(Nc2cc(NC3CC3)n3ncc(C#N)c3n2)c(F)cc1N1CCC[C@H](NC)C1 [Compound 2, (S)-N-(5-((3-cyano-7-(cyclopropylamino)pyrazolo[1,5-a]pyrimidin-5-yl)amino)-4-fluoro-2-(3-(methylamino)piperidin-1-yl)phenyl)propionamide], the “free plasma Cpeak concentration” value (Multi-dose PK study) was 120 to 190 nM, the CLint scaled at 5 μM [1] was 12.9 mL/min/kg and the IC50 (CSNK2A2) was 12.6 nM.

— paper PMC11397024, “Strategic Fluorination to Achieve a Potent, Selective, Metabolically Stable, and Orally Bioavailable Inhibitor of CSNK2” (Molecules, 2024)
